Several values for one entry are separate records, joined by “and”; a condition that tells them apart may be missing. Equal entries are not always repeated.
Experiment: molar heat capacity at constant pressure; xn = mol fraction of the nth substance listed
Conditions: 100 kPa

[Si] [silicon] + [Li]
Conditions	molar heat capacity at constant pressure
127.62 K, Crystal of intercomponent compound 2, relaxation calorimeter, x2 = 0.804	12.78 J/K/mol
127.64 K, Crystal of intercomponent compound 2, relaxation calorimeter, x2 = 0.804	12.84 J/K/mol
130 K, Crystal of intercomponent compound 1, relaxation calorimetry + DSC, x2 = 0.81	12.64 J/K/mol
130 K, Crystal of intercomponent compound 2, relaxation calorimetry + DSC, x2 = 0.804	13.04 J/K/mol
131.69 K, Crystal of intercomponent compound 1, relaxation calorimetry, x2 = 0.81	12.88 J/K/mol
131.69 K, Crystal of intercomponent compound 2, relaxation calorimeter, x2 = 0.804	13.22 J/K/mol
131.71 K, Crystal of intercomponent compound 2, relaxation calorimeter, x2 = 0.804	13.3 J/K/mol
135.76 K, Crystal of intercomponent compound 1, relaxation calorimetry, x2 = 0.81	13.31 J/K/mol
135.76 K, Crystal of intercomponent compound 2, relaxation calorimeter, x2 = 0.804	13.64 J/K/mol
135.78 K, Crystal of intercomponent compound 2, relaxation calorimeter, x2 = 0.804	13.71 J/K/mol
139.83 K, Crystal of intercomponent compound 1, relaxation calorimetry, x2 = 0.81	13.71 J/K/mol
139.83 K, Crystal of intercomponent compound 2, relaxation calorimeter, x2 = 0.804	14.04 J/K/mol
139.85 K, Crystal of intercomponent compound 2, relaxation calorimeter, x2 = 0.804	14.09 J/K/mol
140 K, Crystal of intercomponent compound 1, relaxation calorimetry + DSC, x2 = 0.81	13.65 J/K/mol
140 K, Crystal of intercomponent compound 2, relaxation calorimetry + DSC, x2 = 0.804	14.07 J/K/mol
143.86 K, Crystal of intercomponent compound 1, relaxation calorimetry, x2 = 0.81	14.08 J/K/mol
143.87 K, Crystal of intercomponent compound 2, relaxation calorimeter, x2 = 0.804	14.45 J/K/mol
143.88 K, Crystal of intercomponent compound 2, relaxation calorimeter, x2 = 0.804	14.5 J/K/mol
147.97 K, Crystal of intercomponent compound 1, relaxation calorimetry, x2 = 0.81	14.51 J/K/mol
147.98 K, Crystal of intercomponent compound 2, relaxation calorimeter, x2 = 0.804	14.83 J/K/mol
147.99 K, Crystal of intercomponent compound 2, relaxation calorimeter, x2 = 0.804	14.94 J/K/mol
150 K, Crystal of intercomponent compound 1, relaxation calorimetry + DSC, x2 = 0.81	14.58 J/K/mol
150 K, Crystal of intercomponent compound 2, relaxation calorimetry + DSC, x2 = 0.804	15.01 J/K/mol
152 K, Crystal of intercomponent compound 1, relaxation calorimetry, x2 = 0.81	14.84 J/K/mol
152 K, Crystal of intercomponent compound 2, relaxation calorimeter, x2 = 0.804	15.17 J/K/mol
152.02 K, Crystal of intercomponent compound 2, relaxation calorimeter, x2 = 0.804	15.29 J/K/mol
156.1 K, Crystal of intercomponent compound 1, relaxation calorimetry, x2 = 0.81	15.17 J/K/mol
156.1 K, Crystal of intercomponent compound 2, relaxation calorimeter, x2 = 0.804	15.54 J/K/mol
156.12 K, Crystal of intercomponent compound 2, relaxation calorimeter, x2 = 0.804	15.62 J/K/mol
160 K, Crystal of intercomponent compound 1, relaxation calorimetry + DSC, x2 = 0.81	15.43 J/K/mol
160 K, Crystal of intercomponent compound 2, relaxation calorimetry + DSC, x2 = 0.804	15.88 J/K/mol
160.12 K, Crystal of intercomponent compound 1, relaxation calorimetry, x2 = 0.81	15.52 J/K/mol
160.13 K, Crystal of intercomponent compound 2, relaxation calorimeter, x2 = 0.804	15.86 J/K/mol
160.14 K, Crystal of intercomponent compound 2, relaxation calorimeter, x2 = 0.804	15.96 J/K/mol
164.23 K, Crystal of intercomponent compound 1, relaxation calorimetry, x2 = 0.81	15.85 J/K/mol
164.23 K, Crystal of intercomponent compound 2, relaxation calorimeter, x2 = 0.804	16.22 J/K/mol
164.24 K, Crystal of intercomponent compound 2, relaxation calorimeter, x2 = 0.804	16.27 J/K/mol
168.29 K, Crystal of intercomponent compound 1, relaxation calorimetry, x2 = 0.81	16.17 J/K/mol
168.29 K, Crystal of intercomponent compound 2, relaxation calorimeter, x2 = 0.804	16.53 J/K/mol
168.31 K, Crystal of intercomponent compound 2, relaxation calorimeter, x2 = 0.804	16.6 J/K/mol
170 K, Crystal of intercomponent compound 1, relaxation calorimetry + DSC, x2 = 0.81	16.22 J/K/mol
170 K, Crystal of intercomponent compound 2, relaxation calorimetry + DSC, x2 = 0.804	16.67 J/K/mol
172.36 K, Crystal of intercomponent compound 1, relaxation calorimetry, x2 = 0.81	16.41 J/K/mol
172.36 K, Crystal of intercomponent compound 2, relaxation calorimeter, x2 = 0.804	16.79 J/K/mol
172.38 K, Crystal of intercomponent compound 2, relaxation calorimeter, x2 = 0.804	16.9 J/K/mol
176.43 K, Crystal of intercomponent compound 1, relaxation calorimetry, x2 = 0.81	16.71 J/K/mol
176.43 K, Crystal of intercomponent compound 2, relaxation calorimeter, x2 = 0.804	17.06 J/K/mol and 17.19 J/K/mol
180 K, Crystal of intercomponent compound 1, relaxation calorimetry + DSC, x2 = 0.81	16.94 J/K/mol
180 K, Crystal of intercomponent compound 2, relaxation calorimetry + DSC, x2 = 0.804	17.39 J/K/mol
180.45 K, Crystal of intercomponent compound 1, relaxation calorimetry, x2 = 0.81	16.95 J/K/mol
180.45 K, Crystal of intercomponent compound 2, relaxation calorimeter, x2 = 0.804	17.33 J/K/mol
180.46 K, Crystal of intercomponent compound 2, relaxation calorimeter, x2 = 0.804	17.44 J/K/mol
184.56 K, Crystal of intercomponent compound 2, relaxation calorimeter, x2 = 0.804	17.58 J/K/mol
184.57 K, Crystal of intercomponent compound 1, relaxation calorimetry, x2 = 0.81	17.2 J/K/mol
184.57 K, Crystal of intercomponent compound 2, relaxation calorimeter, x2 = 0.804	17.69 J/K/mol
188.58 K, Crystal of intercomponent compound 2, relaxation calorimeter, x2 = 0.804	17.84 J/K/mol
188.59 K, Crystal of intercomponent compound 1, relaxation calorimetry, x2 = 0.81	17.45 J/K/mol
188.59 K, Crystal of intercomponent compound 2, relaxation calorimeter, x2 = 0.804	17.97 J/K/mol
190 K, Crystal of intercomponent compound 1, relaxation calorimetry + DSC, x2 = 0.81	17.6 J/K/mol
190 K, Crystal of intercomponent compound 2, relaxation calorimetry + DSC, x2 = 0.804	18.05 J/K/mol
192.69 K, Crystal of intercomponent compound 1, relaxation calorimetry, x2 = 0.81	17.73 J/K/mol
192.69 K, Crystal of intercomponent compound 2, relaxation calorimeter, x2 = 0.804	18.09 J/K/mol
192.71 K, Crystal of intercomponent compound 2, relaxation calorimeter, x2 = 0.804	18.27 J/K/mol
196.74 K, Crystal of intercomponent compound 2, relaxation calorimeter, x2 = 0.804	18.32 J/K/mol
196.78 K, Crystal of intercomponent compound 1, relaxation calorimetry, x2 = 0.81	17.96 J/K/mol
196.78 K, Crystal of intercomponent compound 2, relaxation calorimeter, x2 = 0.804	18.47 J/K/mol
200 K, Crystal of intercomponent compound 1, relaxation calorimetry + DSC, x2 = 0.81	18.2 J/K/mol
200 K, Crystal of intercomponent compound 2, relaxation calorimetry + DSC, x2 = 0.804	18.65 J/K/mol
200.77 K, Crystal of intercomponent compound 2, relaxation calorimeter, x2 = 0.804	18.54 J/K/mol
200.8 K, Crystal of intercomponent compound 1, relaxation calorimetry, x2 = 0.81	18.22 J/K/mol
200.8 K, Crystal of intercomponent compound 2, relaxation calorimeter, x2 = 0.804	18.74 J/K/mol
204.91 K, Crystal of intercomponent compound 2, relaxation calorimeter, x2 = 0.804	18.8 J/K/mol
204.92 K, Crystal of intercomponent compound 1, relaxation calorimetry, x2 = 0.81	18.43 J/K/mol
204.93 K, Crystal of intercomponent compound 2, relaxation calorimeter, x2 = 0.804	18.97 J/K/mol
208.92 K, Crystal of intercomponent compound 2, relaxation calorimeter, x2 = 0.804	19.05 J/K/mol
208.93 K, Crystal of intercomponent compound 1, relaxation calorimetry, x2 = 0.81	18.63 J/K/mol
208.94 K, Crystal of intercomponent compound 2, relaxation calorimeter, x2 = 0.804	19.19 J/K/mol
210 K, Crystal of intercomponent compound 1, relaxation calorimetry + DSC, x2 = 0.81	18.76 J/K/mol
210 K, Crystal of intercomponent compound 2, relaxation calorimetry + DSC, x2 = 0.804	19.19 J/K/mol
213.04 K, Crystal of intercomponent compound 2, relaxation calorimeter, x2 = 0.804	19.24 J/K/mol
213.05 K, Crystal of intercomponent compound 1, relaxation calorimetry, x2 = 0.81	18.87 J/K/mol

— the NIST ThermoML archive (doi:10.1016/j.jct.2015.01.004)
